From ChEMBL document CHEMBL1201862, “PubChem BioAssay data set” (2004)
Active and inactive are the calls of the source. For most assays here, no stated cut-off is given here; in the data, actives have a measured IC50 and inactives only a lower limit.

Key:
[1] = target: T1, Replicative DNA helicase DnaB (Mycobacterium tuberculosis, UniProt P9WMR3); assay: DnaB intein splicing inhibitors, dose response, biochemical, cell-free fluorescence (AID 449749); assay type: functional
T1 sequence (P9WMR3 whole entry): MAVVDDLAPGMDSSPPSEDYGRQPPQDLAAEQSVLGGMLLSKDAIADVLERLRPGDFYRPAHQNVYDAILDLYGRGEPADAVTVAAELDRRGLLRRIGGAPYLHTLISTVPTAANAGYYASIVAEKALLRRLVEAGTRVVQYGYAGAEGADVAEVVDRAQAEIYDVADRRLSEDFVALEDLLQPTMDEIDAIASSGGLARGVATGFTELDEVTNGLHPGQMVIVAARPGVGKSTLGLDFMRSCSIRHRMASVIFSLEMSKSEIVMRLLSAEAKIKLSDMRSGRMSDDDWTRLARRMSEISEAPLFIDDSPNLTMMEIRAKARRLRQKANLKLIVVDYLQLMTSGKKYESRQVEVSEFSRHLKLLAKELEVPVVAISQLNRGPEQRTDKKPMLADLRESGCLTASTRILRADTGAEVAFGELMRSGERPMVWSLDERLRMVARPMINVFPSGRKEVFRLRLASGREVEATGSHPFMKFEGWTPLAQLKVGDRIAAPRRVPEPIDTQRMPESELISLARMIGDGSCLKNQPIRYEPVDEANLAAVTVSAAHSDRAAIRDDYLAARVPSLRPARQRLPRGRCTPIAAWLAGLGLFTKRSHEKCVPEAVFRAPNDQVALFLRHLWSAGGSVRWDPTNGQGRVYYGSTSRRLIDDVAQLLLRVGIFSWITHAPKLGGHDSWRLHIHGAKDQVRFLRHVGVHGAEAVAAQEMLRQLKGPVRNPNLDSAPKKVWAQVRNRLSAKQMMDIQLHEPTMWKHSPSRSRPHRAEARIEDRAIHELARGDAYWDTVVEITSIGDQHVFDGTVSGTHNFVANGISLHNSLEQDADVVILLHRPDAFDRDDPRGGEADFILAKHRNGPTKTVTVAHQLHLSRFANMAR

[2] = target: T2, Apoptotic protease-activating factor 1 (Homo sapiens, UniProt O14727); assay type: functional
T2 sequence (O14727 whole entry): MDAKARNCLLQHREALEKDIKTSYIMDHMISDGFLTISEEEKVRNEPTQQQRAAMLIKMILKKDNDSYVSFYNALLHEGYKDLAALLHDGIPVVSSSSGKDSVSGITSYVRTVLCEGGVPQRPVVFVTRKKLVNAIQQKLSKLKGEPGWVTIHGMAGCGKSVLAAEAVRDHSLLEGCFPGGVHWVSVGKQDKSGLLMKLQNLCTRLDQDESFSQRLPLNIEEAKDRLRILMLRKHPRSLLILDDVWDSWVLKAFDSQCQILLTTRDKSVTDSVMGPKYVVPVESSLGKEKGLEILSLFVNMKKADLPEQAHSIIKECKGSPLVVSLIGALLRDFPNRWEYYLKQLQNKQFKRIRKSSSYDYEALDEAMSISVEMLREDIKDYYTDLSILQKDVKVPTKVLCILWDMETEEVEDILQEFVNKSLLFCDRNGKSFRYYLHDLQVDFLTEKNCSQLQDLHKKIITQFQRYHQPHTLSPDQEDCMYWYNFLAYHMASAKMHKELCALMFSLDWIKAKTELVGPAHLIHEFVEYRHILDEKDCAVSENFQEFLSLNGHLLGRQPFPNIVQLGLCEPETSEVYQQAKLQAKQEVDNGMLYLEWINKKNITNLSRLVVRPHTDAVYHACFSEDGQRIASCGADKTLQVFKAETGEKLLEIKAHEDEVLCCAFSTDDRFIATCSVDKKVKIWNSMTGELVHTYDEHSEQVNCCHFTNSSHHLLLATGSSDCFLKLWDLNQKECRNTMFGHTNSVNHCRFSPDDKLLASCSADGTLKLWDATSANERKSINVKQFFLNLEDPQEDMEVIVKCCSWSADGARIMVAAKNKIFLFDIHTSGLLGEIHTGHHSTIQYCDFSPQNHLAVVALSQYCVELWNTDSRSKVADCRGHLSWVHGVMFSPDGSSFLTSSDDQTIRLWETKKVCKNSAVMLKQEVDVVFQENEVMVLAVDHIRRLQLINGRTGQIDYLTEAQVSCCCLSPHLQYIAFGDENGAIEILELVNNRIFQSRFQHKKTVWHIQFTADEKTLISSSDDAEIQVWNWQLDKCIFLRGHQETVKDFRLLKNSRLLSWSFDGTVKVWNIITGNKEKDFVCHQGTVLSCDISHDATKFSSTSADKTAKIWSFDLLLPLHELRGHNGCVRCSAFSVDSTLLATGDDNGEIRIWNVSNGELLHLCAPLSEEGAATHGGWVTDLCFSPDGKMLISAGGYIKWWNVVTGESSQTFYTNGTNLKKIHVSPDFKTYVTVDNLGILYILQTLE

[3] = target: T3, Protein RecA (Mycobacterium tuberculosis, UniProt P9WHJ3); assay: Fluorescence Cell-Free Homogeneous Dose Retest to Identify Inhibitors of RecA-Intein Splicing Activity. [Related pubchem assays (depositor defined):AID2097, AID2223, AID489010, AID492950]; assay type: functional
T3 sequence (P9WHJ3 whole entry): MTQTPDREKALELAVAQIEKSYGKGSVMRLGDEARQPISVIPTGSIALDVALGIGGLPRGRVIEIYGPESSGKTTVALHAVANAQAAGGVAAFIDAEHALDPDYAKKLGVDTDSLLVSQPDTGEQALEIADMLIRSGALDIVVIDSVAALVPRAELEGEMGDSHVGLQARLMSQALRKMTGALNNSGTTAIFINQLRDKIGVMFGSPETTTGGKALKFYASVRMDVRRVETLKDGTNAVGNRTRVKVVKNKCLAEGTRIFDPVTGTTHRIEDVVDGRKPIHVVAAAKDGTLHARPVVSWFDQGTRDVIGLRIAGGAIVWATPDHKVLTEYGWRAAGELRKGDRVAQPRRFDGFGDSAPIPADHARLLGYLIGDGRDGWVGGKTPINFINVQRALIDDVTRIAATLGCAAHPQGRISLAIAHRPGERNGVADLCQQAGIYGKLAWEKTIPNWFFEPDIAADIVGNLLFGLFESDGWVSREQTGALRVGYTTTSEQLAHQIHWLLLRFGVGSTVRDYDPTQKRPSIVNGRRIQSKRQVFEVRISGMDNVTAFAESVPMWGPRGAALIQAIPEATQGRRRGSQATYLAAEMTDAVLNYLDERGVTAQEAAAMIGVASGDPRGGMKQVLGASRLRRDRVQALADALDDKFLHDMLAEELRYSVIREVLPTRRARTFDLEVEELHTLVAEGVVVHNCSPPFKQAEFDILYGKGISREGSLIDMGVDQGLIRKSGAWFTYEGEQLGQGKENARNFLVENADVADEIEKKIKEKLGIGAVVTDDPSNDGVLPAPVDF

[4] = target: T4, Caspase-3 (Homo sapiens, UniProt P42574); assay type: functional;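 further: Dose-response selectivity test against caspase-3 for candidate inhibitors of sentrin-specific proteases (SENPs)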
T4 sequence (P42574 whole entry): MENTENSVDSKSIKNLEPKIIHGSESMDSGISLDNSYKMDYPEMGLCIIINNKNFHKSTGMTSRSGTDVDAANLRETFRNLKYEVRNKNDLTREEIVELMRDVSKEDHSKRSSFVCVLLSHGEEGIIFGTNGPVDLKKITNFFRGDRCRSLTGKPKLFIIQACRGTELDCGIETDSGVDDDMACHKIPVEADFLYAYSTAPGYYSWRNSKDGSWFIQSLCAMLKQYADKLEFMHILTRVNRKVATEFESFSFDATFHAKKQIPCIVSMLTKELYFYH

[5] = target: T5, Sentrin-specific protease 7 (Homo sapiens, UniProt Q9BQF6); assay type: functional;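 further: Luminescence-based dose-response confirmation of ultra-high-throughput screening hits, measuring inhibition of SENP7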
T5 sequence (Q9BQF6 whole entry): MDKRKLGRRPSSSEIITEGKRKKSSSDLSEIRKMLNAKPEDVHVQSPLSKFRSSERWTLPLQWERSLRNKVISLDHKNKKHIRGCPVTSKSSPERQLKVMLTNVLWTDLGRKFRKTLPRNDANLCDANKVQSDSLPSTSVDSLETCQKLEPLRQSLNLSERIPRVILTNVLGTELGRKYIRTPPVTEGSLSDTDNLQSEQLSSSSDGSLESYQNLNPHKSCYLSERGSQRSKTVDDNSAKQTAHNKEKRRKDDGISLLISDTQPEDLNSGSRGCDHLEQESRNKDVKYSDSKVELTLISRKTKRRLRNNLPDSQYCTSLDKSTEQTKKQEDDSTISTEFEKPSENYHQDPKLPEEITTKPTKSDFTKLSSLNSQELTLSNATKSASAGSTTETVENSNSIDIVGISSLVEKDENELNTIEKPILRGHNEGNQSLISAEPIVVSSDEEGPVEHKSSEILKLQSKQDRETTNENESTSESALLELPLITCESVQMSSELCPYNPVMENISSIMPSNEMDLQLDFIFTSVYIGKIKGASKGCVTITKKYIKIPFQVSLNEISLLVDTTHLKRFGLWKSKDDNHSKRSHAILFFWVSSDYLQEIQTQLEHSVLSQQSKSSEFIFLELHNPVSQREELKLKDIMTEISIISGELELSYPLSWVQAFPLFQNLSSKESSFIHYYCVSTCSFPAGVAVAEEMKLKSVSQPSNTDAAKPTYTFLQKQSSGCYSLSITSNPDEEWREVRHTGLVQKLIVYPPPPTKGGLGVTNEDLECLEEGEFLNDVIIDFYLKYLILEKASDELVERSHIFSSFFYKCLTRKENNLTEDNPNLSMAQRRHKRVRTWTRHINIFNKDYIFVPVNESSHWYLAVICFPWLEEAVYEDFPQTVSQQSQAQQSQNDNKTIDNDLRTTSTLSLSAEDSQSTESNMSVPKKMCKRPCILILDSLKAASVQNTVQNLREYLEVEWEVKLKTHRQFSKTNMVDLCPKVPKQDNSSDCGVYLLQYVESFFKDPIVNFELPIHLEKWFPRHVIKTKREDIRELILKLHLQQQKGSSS

[6] = target: T6, Sentrin-specific protease 6 (Homo sapiens, UniProt Q9GZR1); assay type: functional;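 further: Luminescence-based dose-response confirmatory assay of SENP6 inhibition, following up an ultra-high-throughput screen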
T6 sequence (Q9GZR1 whole entry): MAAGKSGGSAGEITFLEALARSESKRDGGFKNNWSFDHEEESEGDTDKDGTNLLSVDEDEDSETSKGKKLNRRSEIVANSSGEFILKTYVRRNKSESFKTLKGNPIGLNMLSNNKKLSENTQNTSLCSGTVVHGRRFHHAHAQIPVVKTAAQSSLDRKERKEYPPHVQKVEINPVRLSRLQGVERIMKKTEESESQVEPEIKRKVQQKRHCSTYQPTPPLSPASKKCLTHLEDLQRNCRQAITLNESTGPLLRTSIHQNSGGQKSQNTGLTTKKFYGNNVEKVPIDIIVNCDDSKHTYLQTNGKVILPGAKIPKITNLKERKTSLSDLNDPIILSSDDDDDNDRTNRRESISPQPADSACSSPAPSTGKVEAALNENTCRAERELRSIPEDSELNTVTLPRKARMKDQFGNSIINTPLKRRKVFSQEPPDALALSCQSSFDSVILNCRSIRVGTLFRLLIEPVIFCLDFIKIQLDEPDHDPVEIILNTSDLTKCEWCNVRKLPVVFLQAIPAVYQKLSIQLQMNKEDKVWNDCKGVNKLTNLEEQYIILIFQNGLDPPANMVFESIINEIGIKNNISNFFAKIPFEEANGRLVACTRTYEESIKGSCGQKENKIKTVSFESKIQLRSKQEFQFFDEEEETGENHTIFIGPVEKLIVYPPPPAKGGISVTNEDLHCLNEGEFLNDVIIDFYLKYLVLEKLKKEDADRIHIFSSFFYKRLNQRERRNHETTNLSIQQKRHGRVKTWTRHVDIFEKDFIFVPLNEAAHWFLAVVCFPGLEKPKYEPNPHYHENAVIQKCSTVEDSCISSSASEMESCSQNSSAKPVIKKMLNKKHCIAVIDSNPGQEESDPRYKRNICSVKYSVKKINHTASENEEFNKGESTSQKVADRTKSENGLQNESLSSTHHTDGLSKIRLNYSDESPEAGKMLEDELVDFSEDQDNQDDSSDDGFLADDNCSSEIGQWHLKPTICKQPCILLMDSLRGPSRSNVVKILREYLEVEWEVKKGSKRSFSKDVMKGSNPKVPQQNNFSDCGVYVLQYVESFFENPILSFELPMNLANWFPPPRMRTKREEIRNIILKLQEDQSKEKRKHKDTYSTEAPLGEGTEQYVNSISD

[7] = target: T7, Sentrin-specific protease 8 (Homo sapiens, UniProt Q96LD8); assay type: functional;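 further: luminescence read-out of SENP8 inhibition, dose-response confirmation following an ultra-high-throughput screen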
T7 sequence (Q96LD8 whole entry): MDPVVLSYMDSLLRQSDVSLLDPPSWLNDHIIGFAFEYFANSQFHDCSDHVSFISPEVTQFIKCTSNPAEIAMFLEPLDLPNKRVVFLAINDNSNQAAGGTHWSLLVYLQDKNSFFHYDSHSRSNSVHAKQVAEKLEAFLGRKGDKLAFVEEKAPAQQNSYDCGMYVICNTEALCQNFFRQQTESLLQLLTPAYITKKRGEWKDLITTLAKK

[8] = target: T8, Oxysterols receptor LXR-beta (Homo sapiens, UniProt P55055); assay type: functional, cell-based;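 further: Cell-based luminescence dose-response assay of agonist activity at LXR, run as a confirmatory counterscreen to a daf-12 agonist screen; HEK293 cells with Gal4-LXR fusion and GAL4-driven luciferase reporter; agonist potency from rising luciferase signal of a Gal4-LXR reporter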
T8 sequence (P55055 whole entry): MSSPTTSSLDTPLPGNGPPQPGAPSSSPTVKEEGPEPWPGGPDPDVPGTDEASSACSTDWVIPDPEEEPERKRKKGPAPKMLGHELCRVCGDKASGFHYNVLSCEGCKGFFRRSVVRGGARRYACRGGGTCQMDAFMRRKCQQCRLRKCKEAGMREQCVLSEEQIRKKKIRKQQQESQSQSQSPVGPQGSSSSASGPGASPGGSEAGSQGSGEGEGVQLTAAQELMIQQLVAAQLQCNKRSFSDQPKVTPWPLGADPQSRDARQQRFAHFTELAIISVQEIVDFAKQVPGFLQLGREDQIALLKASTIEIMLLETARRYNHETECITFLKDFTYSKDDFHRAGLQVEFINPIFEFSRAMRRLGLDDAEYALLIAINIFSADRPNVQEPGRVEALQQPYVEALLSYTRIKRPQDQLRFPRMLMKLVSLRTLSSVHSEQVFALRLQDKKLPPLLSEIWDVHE

[9] = cells

CCCc1n[nH]c2c1C(c1ccc(OC)c(CSC3=NCCS3)c1)C(C#N)=C(N)O2 (centres undefined)
AC50 [1]: 2.99 µM (active)
IC50 [2]: 23.9 µM (active)
EC50 [3]: 4.56 µM (active)

C(=N\Nc1ccccc1)/c1nc2ccccc2s1
IC50 [4]: 26 µM (active)
IC50 [5]: 1.6 µM (active)
IC50 [6]: > 100 µM (inactive)
IC50 [7]: > 100 µM (inactive)
EC50 [8]: > 67.5 µM (inactive)
EC50 [9]: > 67.5 µM (inactive)
